# According to ChEMBL document CHEMBL1201862, “PubChem BioAssay data set” (2004):
# Calls of active or inactive are those of the source.
# How the values were obtained:
# Cytochrome P450 1A2 = biological target: T1, Cytochrome P450 1A2 (Homo sapiens, UniProt P05177);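 also: PubChem cytochrome P450 panel assay, CYP1A2 panel member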
# T1 sequence (P05177 whole entry): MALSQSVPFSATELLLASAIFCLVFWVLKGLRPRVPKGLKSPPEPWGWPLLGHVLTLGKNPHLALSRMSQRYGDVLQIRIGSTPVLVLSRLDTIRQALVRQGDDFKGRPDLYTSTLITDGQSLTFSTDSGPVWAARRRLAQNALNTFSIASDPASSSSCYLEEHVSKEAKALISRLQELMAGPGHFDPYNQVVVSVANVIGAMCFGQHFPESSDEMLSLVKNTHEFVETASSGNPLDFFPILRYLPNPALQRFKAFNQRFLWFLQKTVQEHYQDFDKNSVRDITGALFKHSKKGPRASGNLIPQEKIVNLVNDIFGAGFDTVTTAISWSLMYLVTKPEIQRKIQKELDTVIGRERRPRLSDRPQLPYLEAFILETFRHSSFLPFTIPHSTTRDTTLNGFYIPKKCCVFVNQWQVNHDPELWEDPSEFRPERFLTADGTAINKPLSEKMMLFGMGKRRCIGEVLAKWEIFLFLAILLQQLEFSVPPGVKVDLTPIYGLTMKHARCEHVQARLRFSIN
# INS1 = experiment: INS-1E survival protection against cytokine death – cell-based, luminescence, retest, dose response (AID 449756); type: functional; conditions: Rattus norvegicus;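 also: cell death triggered by IL-1 beta plus TNF-alpha plus IFN-gamma mixture; protective hits raise ATP signal compared with cytokine alone wells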
# [1] = biological target: Luciferin 4-monooxygenase (Photinus pyralis, UniProt P08659); experiment: inhibition of purified Photinus pyralis luciferase – biochemical, luminescence, dose response (AID 1891)
# [2] = Luminescence Cell-Based Dose Confirmation HTS to Identify Inhibitors of Platelet Dense Granule Release. [Related pubchem assays: 1663 (Primary HTS), 1678 (Summary of Project)]; type: functional
# [3] = Luminescence Cell-Based Dose Response HTS to Identify Activators of Luciferase Translation or Activity in H4 […] Cells. [Related pubchem assays: 1829 (Project Summary), 1814 (Primary HTS)]; type: functional
# [4] = Luminescence Cell-Based Dose Confirmation HTS to Identify Activators of 5'UTR Stem-Loop Driven Alpha-Synuclein mRNA Translation in H4 Neuroglioblastoma Cells. [Related pubchem assays: 1829 (Project Summary), 1814 (Primary HTS)]; type: functional
# H4 = experiment: Luminescence Cell-Based Dose Response HTS to Identify Activators of 5'UTR Stem-Loop Driven Prion Protein mRNA Translation in H4 Neuroglioblastoma Cells. [Related pubchem assays: 1829 (Project Summary), 1814 (Primary HTS)]; type: functional; conditions: Homo sapiens
# [5] = Luminescence Cell-Based Dose Retest to Confirm Inhibitors of Cancer Stem Cells. [Related pubchem assays (depositor defined):AID2717, AID2721]; type: functional; conditions: Homo sapiens
# [6] = biological target: T2, Rac GTPase-activating protein 1 (Homo sapiens, UniProt Q9H0H5); experiment: blockers of MgcRacGAP-driven Rac1 GTP hydrolysis – biochemical, ADP Hunter fluorescence, primary and confirmatory, confirmation (AID 624330); type: functional
# T2 sequence (Q9H0H5 whole entry): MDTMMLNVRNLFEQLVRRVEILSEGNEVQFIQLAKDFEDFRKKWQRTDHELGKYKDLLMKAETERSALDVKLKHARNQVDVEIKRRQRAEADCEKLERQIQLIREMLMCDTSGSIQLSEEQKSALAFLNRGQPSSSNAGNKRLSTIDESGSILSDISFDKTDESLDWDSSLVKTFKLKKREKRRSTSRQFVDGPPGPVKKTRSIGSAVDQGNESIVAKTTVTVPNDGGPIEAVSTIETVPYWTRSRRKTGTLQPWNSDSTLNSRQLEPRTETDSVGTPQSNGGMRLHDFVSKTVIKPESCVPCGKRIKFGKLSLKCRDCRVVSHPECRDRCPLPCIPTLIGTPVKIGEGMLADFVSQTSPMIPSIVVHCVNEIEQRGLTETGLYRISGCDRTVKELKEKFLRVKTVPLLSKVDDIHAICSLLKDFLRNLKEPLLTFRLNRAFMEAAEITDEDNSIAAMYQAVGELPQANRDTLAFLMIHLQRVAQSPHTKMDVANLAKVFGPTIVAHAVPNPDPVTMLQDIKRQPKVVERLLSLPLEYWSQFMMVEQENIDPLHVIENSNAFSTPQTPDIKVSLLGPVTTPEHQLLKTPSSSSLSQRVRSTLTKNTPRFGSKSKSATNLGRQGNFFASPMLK
# [7] = NIH3T3 cell viability loss – ATP luminescence, mouse fibroblasts, counter-screen, dose response (AID 2010); type: functional, cell-based;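 also: cells exposed to compound for about 90 hours before reading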
# [8] = Trypanosoma cruzi growth suppression in host cells – NIH3T3 host cells, beta-gal luminescence, confirmation (AID 2044); type: functional, cell-based;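 also: intracellular parasites grown in NIH/3T3 mouse fibroblasts as host cells; luminescent beta-galactosidase reporter signal from transgenic T. cruzi replicating inside host cells; inhibitors lower the luminescence signal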
# Cytochrome P450 2C19 = Cytochrome P450 2C19 (Homo sapiens, UniProt P33261); experiment: Cytochrome panel assay with activity outcomes. Panel member name: p450-cyp2c19 Compounds with AC50 equal or less than 10 uM are considered active; type: functional; conditions: read-out: AC50
# Cytochrome P450 3A4 = Cytochrome P450 3A4 (Homo sapiens, UniProt P08684);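 also: CYP3A4 tested as one member of a cytochrome P450 panel screen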
# Cytochrome P450 2C9 = Cytochrome P450 2C9 (Homo sapiens, UniProt P11712)
# [9] = viability of uninfected HEp-2 cells – cell-based, HTS, cytotoxicity control for RSV inhibitor project, dose response (AID 2410); type: functional; conditions: human respiratory syncytial virus
# Sequence of Cytochrome P450 3A4 (P08684 whole entry): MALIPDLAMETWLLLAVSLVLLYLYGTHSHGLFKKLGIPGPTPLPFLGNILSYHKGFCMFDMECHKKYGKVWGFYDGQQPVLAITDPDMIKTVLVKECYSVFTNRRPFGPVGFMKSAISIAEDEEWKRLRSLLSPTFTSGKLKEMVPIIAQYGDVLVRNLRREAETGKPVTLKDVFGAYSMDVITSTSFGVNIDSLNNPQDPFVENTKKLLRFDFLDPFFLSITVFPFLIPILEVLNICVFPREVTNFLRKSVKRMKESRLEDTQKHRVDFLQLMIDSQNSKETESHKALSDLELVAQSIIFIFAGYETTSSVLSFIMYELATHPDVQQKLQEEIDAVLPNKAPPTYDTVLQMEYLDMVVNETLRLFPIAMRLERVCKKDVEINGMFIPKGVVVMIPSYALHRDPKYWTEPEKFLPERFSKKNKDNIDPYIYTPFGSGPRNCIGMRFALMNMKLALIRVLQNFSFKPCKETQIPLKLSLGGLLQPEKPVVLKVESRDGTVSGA
# Sequence of Cytochrome P450 2C9 (P11712 whole entry): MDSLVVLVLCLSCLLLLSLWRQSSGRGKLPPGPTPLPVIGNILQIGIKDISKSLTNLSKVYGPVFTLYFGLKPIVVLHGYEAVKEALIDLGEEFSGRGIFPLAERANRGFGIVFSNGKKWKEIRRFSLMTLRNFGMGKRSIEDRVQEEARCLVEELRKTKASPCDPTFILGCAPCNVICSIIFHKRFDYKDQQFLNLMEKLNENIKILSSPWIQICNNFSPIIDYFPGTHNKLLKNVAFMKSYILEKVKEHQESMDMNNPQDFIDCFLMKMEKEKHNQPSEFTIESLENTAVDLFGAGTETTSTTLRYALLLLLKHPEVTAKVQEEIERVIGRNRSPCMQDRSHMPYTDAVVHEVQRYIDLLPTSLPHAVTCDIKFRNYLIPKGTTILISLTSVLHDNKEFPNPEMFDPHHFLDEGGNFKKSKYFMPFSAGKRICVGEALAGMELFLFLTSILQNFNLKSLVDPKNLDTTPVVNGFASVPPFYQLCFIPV
# Sequence of Cytochrome P450 2C19 (P33261 whole entry): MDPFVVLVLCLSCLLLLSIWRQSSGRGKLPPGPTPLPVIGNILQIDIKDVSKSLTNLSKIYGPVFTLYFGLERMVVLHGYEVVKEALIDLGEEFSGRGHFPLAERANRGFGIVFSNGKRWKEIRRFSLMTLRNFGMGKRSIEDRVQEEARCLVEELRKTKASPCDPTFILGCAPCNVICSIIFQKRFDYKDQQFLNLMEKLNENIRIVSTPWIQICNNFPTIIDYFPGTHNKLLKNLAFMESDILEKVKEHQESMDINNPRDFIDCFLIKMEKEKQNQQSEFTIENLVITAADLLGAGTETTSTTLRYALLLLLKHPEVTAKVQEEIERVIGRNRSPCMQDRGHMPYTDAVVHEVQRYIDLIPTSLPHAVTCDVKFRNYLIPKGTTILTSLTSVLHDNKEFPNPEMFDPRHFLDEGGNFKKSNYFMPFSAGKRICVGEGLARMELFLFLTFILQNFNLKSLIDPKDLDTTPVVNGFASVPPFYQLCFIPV
# Sequence of Luciferin 4-monooxygenase (P08659 whole entry): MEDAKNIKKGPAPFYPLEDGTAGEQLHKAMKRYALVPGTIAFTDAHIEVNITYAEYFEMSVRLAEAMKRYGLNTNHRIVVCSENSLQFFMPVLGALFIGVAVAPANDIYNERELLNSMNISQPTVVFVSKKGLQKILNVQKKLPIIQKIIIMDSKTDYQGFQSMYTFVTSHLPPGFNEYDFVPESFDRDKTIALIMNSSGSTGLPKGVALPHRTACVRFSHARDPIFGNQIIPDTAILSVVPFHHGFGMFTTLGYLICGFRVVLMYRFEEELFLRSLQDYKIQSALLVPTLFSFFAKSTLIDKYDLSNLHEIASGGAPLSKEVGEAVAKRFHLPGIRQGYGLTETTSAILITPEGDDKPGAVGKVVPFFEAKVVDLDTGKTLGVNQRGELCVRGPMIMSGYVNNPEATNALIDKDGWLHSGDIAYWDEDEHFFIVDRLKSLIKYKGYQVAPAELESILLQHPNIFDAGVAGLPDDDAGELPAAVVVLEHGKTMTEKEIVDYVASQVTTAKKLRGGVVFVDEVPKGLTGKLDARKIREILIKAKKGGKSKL
compound,measurement,setting,value
Nc1nc(-c2ccc3ccccc3c2)cc(-c2cc(-c3ccc4ccccc4c3)nc(N)n2)n1,AC50,Cytochrome P450 1A2,0.501 µM (inconclusive)
O=C(Nc1cccnc1)C1(F)C(F)(F)C(F)(F)C(F)(F)C(F)(F)C1(F)F,AC50,INS1,3.18 µM (active)
CC(C)[C@@H](CO)NC(=O)c1ccc2c3n(nc2c1)-c1ccccc1CO3,EC50,[1],6.1 µM (active)
same,EC50,[2],2.69 µM (active)
C=C(C)CSc1nc2cc(Cl)c[nH]c-2n1,EC50,[3],50.8 µM (active)
same,EC50,[4],19 µM (active)
same,EC50,H4,84.5 µM (active)
O=C(CCCN1C(=O)/C(=C/c2ccccc2)SC1=S)NCCCn1ccnc1,AC50,[5],76.3 µM (active)
same,AC50,INS1,21.2 µM (active)
O=C(NC(=S)Nc1ccc(N2CCCCC2)c(Cl)c1)c1ccc2c(c1)OCCO2,AC50,[5],2.54 µM (active)
O=C1c2ccccc2C(=O)c2c(NC3CCCCC3)ccc(Nc3ccc(S(=O)(=O)O)cc3)c21,AC50,Cytochrome P450 1A2,1.26 µM (inconclusive)
Cc1cc(OCCCCCN2CCCC2)ccc1Cl,IC50,[6],131 µM (active)
same,EC50,[7],19.2 µM (active)
same,EC50,[8],1.23 µM (active)
COc1cccc(OCc2cc(C(=O)N(C)Cc3nccn3C)no2)c1,EC50,[3],15.6 µM (active)
same,EC50,[4],9.91 µM (active)
same,EC50,H4,> 120 µM (not active)
O=C(Nc1ccccc1)/C(=C\c1ccc2c(c1)OCO2)NC(=O)c1ccco1,AC50,Cytochrome P450 1A2,25.1 µM (inconclusive)
same,AC50,Cytochrome P450 2C19,22.4 µM (inconclusive)
same,AC50,Cytochrome P450 3A4,20 µM (inconclusive)
CC(C)c1ccc(NC(S)=NC2CCCCCC2)cc1,EC50,[3],14.3 µM (active)
same,EC50,[4],0.166 µM (active)
same,EC50,H4,22 µM (active)
CCCOc1ccc(C(=O)NC(=S)Nc2nc3ccccc3s2)cc1,EC50,[3],22.5 µM (active)
same,EC50,[4],20.9 µM (active)
same,EC50,H4,48.3 µM (active)
O=C(CNCc1ccco1)Nc1cccc(S(=O)(=O)N2CCCCC2)c1,IC50,[6],169 µM (active)
c1cc(N2CCCC3(CCNCC3)C2)ccn1,AC50,Cytochrome P450 2C9,25.1 µM (inconclusive)
same,AC50,Cytochrome P450 2C19,25.1 µM (inconclusive)
same,AC50,Cytochrome P450 3A4,12.6 µM (inconclusive)
CCO[C@H]1OC(C(=O)N2CCN(Cc3ccc4c(c3)OCO4)CC2)=C[C@@H](c2csc3ccccc23)[C@@H]1CCCO,AC50,INS1,6.83 µM (active)
C[C@@H](C(=O)Nc1ccc2ccccc2c1)[C@@H]1C[C@@]1(C)[C@@H](N)c1ccccc1,AC50,Cytochrome P450 2C9,25.1 µM (inconclusive)
O=C(Nc1ccc(Cl)cc1)OCc1cc(-c2ccccc2Cl)on1,EC50,[1],> 112 µM (not active)
same,EC50,[2],> 112 µM (not active)
same,AC50,Cytochrome P450 2C9,1.12 µM (inconclusive)
c1ccc(C2CSc3ccccc3N2)cc1 (stereo unspecified),EC50,[3],27.5 µM (active)
same,EC50,[4],16.9 µM (active)
same,EC50,H4,22.5 µM (active)
Cc1ccc(OCCCC(=O)N2CCOCC2)cc1,AC50,Cytochrome P450 2C9,39.8 µM (inconclusive)
same,AC50,Cytochrome P450 1A2,25.1 µM (inconclusive)
same,AC50,Cytochrome P450 3A4,25.1 µM (inconclusive)
Cc1cc(O)nc2ccc(S(=O)(=O)NC3CCCCC3)cc12,EC50,[1],> 112 µM (not active)
same,EC50,[2],3.55 µM (active)
CSc1nc(C)c2c(n1)N(c1ccc(C(C)C)cc1)CC2,AC50,Cytochrome P450 2C9,11.2 µM (inconclusive)
same,AC50,Cytochrome P450 2C19,17.8 µM (inconclusive)
CNC[C@H](CC1CCCCC1)NC[C@H](CO)NCCc1cccc(C(F)(F)F)c1,AC50,[5],7.61 µM (active)
same,CC50,[9],12.5 µM (active)
COc1ccc(C(=O)Cc2cnn(-c3ccccc3)c2)c(O)c1,EC50,[3],1.58 µM (active)
same,EC50,[4],0.135 µM (active)
same,EC50,H4,> 120 µM (not active)
O=C(Cn1cnc2c(cnn2-c2ccccc2)c1=O)OCc1ccccc1,EC50,[1],> 112 µM (not active)
same,EC50,[2],> 112 µM (not active)
CCOC(=O)c1c(-c2ccc(OC)cc2)csc1NC(=O)CCN1C(=O)c2ccccc2C1=O,AC50,Cytochrome P450 1A2,12.6 µM (inconclusive)
same,AC50,Cytochrome P450 3A4,4.47 µM (inconclusive)
COc1ccc(-c2nc3ccccc3c(=O)n2N)cc1,AC50,Cytochrome P450 2C9,2.82 µM (inconclusive)
same,AC50,Cytochrome P450 2C19,0.631 µM (inconclusive)
CCCC/C=C/C(NC(=O)c1ccc(-c2ccccc2)cc1)c1ccccc1 (stereo unspecified),AC50,Cytochrome P450 1A2,15.8 µM (inconclusive)
CCOC(=O)c1c(C)oc2cc(Br)c(OC(=O)N3CCOCC3)cc12,EC50,[1],> 112 µM (not active)
same,EC50,[2],> 112 µM (not active)
CNC(=O)[C@H](C)[C@@H]1C[C@@]1(C)[C@@H](NC(=O)OCc1ccccc1)c1ccccc1,AC50,Cytochrome P450 1A2,20 µM (inconclusive)
Cc1ccc2c(c1)cc1c(O)nncn12,EC50,[3],9.57 µM (active)
same,EC50,[4],15.6 µM (active)
same,EC50,H4,24.7 µM (active)
Cc1ccc(CS(=O)(=O)Cc2ccc(C(=O)NCC3CCCO3)o2)cc1 (stereo unspecified),AC50,Cytochrome P450 2C9,39.8 µM (inconclusive)
same,AC50,Cytochrome P450 2C19,31.6 µM (inconclusive)
same,AC50,Cytochrome P450 3A4,15.8 µM (inconclusive)
O=C(NCc1cccs1)c1ccc(N2CCCCC2)nc1,EC50,[3],30.9 µM (active)
same,EC50,[4],> 120 µM (not active)
same,EC50,H4,31.5 µM (active)
COC(=O)c1ccc(/C=C/c2nc(O)c3ccccc3n2)cc1,EC50,[1],17.7 µM (active)
same,EC50,[2],7.02 µM (active)
O=C(NC(=S)Nc1cccc(Cl)c1N1CCCC1)c1ccc(-c2cccc([N+](=O)[O-])c2)o1,AC50,Cytochrome P450 2C9,5.01 µM (inconclusive)
same,AC50,Cytochrome P450 1A2,25.1 µM (inconclusive)
Cc1ccccc1NCc1ccc([N+](=O)[O-])s1,AC50,[5],11 µM (active)
CCOc1cc(S(=O)(=O)Nc2ccc(CC)cc2)ccc1Cl,AC50,[5],6.17 µM (active)
COc1ccc(Cc2nnc(NC(=O)CSc3ccc(C)cc3)s2)cc1OC,AC50,Cytochrome P450 2C9,2.51 µM (inconclusive)
same,AC50,Cytochrome P450 2C19,0.891 µM (inconclusive)
O=C(NC(C(=O)c1ccccc1)n1ccc(=O)[nH]c1=O)c1ccccc1 (stereo unspecified),EC50,[3],11.9 µM (active)
same,EC50,[4],7.39 µM (active)
same,EC50,H4,16.4 µM (active)
O=C(CCSc1ccccc1)N1CCN(c2ccccc2)CC1,EC50,[3],15.5 µM (active)
same,EC50,[4],> 120 µM (not active)
same,EC50,H4,28.4 µM (active)
O=C1NC(=O)C(=Cc2ccco2)C(=O)N1,IC50,[6],141 µM (active)
COc1ccc2cc(C(=O)N/N=C/c3sc4ccccc4c3O)ccc2c1,AC50,[5],1.61 µM (active)
same,AC50,INS1,3.02 µM (active)
C(=N\N1CCOCC1)/c1nc(-c2ccccc2)n2ccccc12,IC50,[6],22.3 µM (active)
O=C(Cc1ccccc1)N/N=C/c1ccc2c(c1)OCO2,EC50,[3],103 µM (active)
same,EC50,[4],1.52 µM (active)
same,EC50,H4,> 120 µM (not active)
CCOC(=O)C(/C=N/c1ccc(C(O)(C(=O)OCC)C(F)(F)F)cc1C)=C(/O)OCC (stereo unspecified),AC50,INS1,6.01 µM (active)
O=C(Nc1ccc(Br)cc1)C1Cc2ccccc2O/C1=N\O (stereo unspecified),EC50,[3],7.85 µM (active)
same,EC50,[4],11.3 µM (active)
same,EC50,H4,9.69 µM (active)
CCNC(=O)[C@H]1O[C@@H](n2cnc3c(N)ncnc32)[C@H](O)[C@@H]1O [NECA],EC50,[2],< 0.088 µM (active)
O=c1oc(-c2ccc(O)c(O)c2)cc2cccc(O)c12 [THUNBERGINOL A],IC50,[6],19.7 µM (active)
